Literature values in PMC8583936, “Machine Learning Assisted Approach for Finding Novel High Activity Agonists of Human Ectopic Olfactory Receptors” (International Journal of Molecular Sciences, 2021).
Read-outs that look alike come from different tables or passages of the source.

Tests used:
OR1A1 = target: T1, OR1A1 (Homo sapiens, UniProt Q9P1Q5); details: cited from earlier work
T1 sequence (Q9P1Q5 1-309): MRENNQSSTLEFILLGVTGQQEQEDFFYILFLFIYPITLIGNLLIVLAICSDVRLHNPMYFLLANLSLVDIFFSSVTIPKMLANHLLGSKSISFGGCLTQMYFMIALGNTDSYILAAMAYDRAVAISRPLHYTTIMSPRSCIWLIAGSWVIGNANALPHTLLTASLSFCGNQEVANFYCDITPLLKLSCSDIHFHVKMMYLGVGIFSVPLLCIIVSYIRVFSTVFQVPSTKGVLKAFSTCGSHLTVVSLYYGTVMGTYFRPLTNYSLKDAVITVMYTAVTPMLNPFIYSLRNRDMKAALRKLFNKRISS

OR2W1 = target: T2, OR2W1 (Homo sapiens, UniProt Q9Y3N9); details: cited from earlier work
T2 sequence (Q9Y3N9 1-320): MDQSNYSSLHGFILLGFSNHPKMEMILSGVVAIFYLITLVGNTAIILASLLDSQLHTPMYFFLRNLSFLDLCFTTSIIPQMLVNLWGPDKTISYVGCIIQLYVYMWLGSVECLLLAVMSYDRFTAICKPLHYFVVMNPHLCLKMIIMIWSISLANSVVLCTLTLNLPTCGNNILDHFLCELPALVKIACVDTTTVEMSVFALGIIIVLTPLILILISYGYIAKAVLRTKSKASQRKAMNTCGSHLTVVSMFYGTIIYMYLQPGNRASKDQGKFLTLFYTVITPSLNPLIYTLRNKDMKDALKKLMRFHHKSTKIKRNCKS

[1] = Table S1, ref Supplement references [1]-[9] as printed after each odorant name
[2] = Table S2, ref Supplement references [2]-[12] as printed after each odorant name

Compound | Class (agonist / non-agonist / conflicting info.) for OR1A1 (OR1A1; [1]) | Class (agonist / non-agonist / antagonist / conflicting info.) for OR2W1 (OR2W1; [2]) | Class (agonist / non-agonist / conflicting info.) for OR1A1 (OR1A1) | Class (agonist / non-agonist / antagonist / conflicting info.) for OR2W1 (OR2W1)
C=CC(O)CCCCC (racemic) [(R/S)-octen-3-ol] | Agonist | Agonist |  | 
CCCCC1CCC(=O)O1 (racemic) [(R/S)-γ-Octalactone] | Non-agonist | Agonist |  | 
CCC(C(=O)O)c1ccccc1 (single isomer, unassigned; (+)) [(+)-2-Phenylbutyric acid] | Non-agonist | Non-agonist |  | 
CC1CC[C@H](C(C)C)[C@@H](O)C1 (single isomer, unassigned; (+)) [(+)-Menthol] | Non-agonist | Conflicting info. |  | 
CCC(C(=O)O)c1ccccc1 (single isomer, unassigned; (-)) [(-)-2-Phenylbutyric acid] | Non-agonist | Non-agonist |  | 
C=C(C)C1CC=C(C)C(=O)C1 (single isomer, unassigned; (-)) [(-)-Carvone] | Agonist | Agonist |  | 
CC1=CCC2CC1C2(C)C (single isomer, unassigned; (-)) [(-)-alpha-Pinene] | Non-agonist | Non-agonist |  | 
C=C1CCC2CC1C2(C)C (single isomer, unassigned; (-)) [(-)-beta-Pinene] | Non-agonist | Non-agonist |  | 
CCCCCCCC(OC)OC [1,1-dimethoxy-octane] | Non-agonist | Agonist |  | 
CC(S)CCS (stereo not drawn) [1,3-butane dithiol] | Non-agonist | Non-agonist |  | 
CC12CCC(CC1)C(C)(C)O2 [1,8-cineole] | Non-agonist | Non-agonist |  | 
CCCCO [1-butanol] | Non-agonist | Non-agonist |  | 
CCCCCCCCCCO [1-decanol] | Agonist | Agonist |  | 
C=CC(=O)CCCCC [1-octen-3-one] | Conflicting info. | Non-agonist |  | 
CC1=CCC(C(C)(C)S)CC1 (stereo not drawn) [1-p-Menthene-8-thiol] | Non-agonist | Non-agonist |  | 
CCCO [1-propanol] | Non-agonist | Non-agonist |  | 
CCCCCCCCCCCO [1-undecanol] | Non-agonist | Non-agonist |  | 
CC(=O)c1ccccc1N [2'-aminoacetophenone] |  |  | Non-agonist | Non-agonist
CCc1ncc(C)nc1CC [2,3-dietyl-5-methylpyrazine] | Non-agonist | Non-agonist |  | 

Compound | Class (agonist / non-agonist / conflicting info.) for OR1A1 (OR1A1; [1]) | Class (agonist / non-agonist / antagonist / conflicting info.) for OR2W1 (OR2W1; [2]) | Class (agonist / non-agonist / conflicting info.) for OR1A1 (OR1A1) | Class (agonist / non-agonist / antagonist / conflicting info.) for OR2W1 (OR2W1)
CCCC(=O)C(C)=O [2,3-hexanedione] | Non-agonist | Agonist |  | 
CCC(=O)C(C)=O [2,3-pentanedione] |  |  | Non-agonist | Non-agonist
CC1=NC(C)SC1C (stereo not drawn) [2,4,5-trimethyl-2,5-dihydro-1,3-thiazole] | Non-agonist | Antagonist |  | 
Cc1ccc(O)c(C)c1 [2,4-dimethylphenol] |  |  | Non-agonist | Non-agonist
CCCC/C=C\C=C\C=O [2,4-nonadienal, (2e,4z)-] | Non-agonist | Non-agonist |  | 
CCCCCC(=O)CC(C)=O [2,4-nonanedione] |  | Agonist |  | 
CCCCC(=O)CC(C)=O [2,4-octanedione] |  | Agonist |  | 
COc1cccc(OC)c1O [2,6-dimethoxyphenol] | Non-agonist | Non-agonist |  | 
Cc1cccc(C)c1O [2,6-dimethylphenol] |  |  | Non-agonist | Non-agonist
CC(=O)C1=NCCS1 [2-Acetyl-2-thiazoline] | Non-agonist | Non-agonist |  | 
CC(=O)c1ccco1 [2-Furyl methyl ketone] | Non-agonist | Non-agonist |  | 
CC(=O)CC(=O)CC(C)C [6-Methyl-2,4-heptanedione] |  | Agonist |  | 
CC(C)=CCC[C@@H](C)CC=O [Citronellal] |  |  |  | Agonist
CCCCCCCCCC(=O)O [Decanoic acid] |  | Agonist |  | 
CCCCCCCS [Heptane-1-thiol] |  | Agonist |  | 
CCCCCCS [Hexane-1-thiol] |  |  |  | Agonist
CC(=O)OC/C=C(/C)CCC=C(C)C [Nerylacetate] | Non-agonist |  |  | 
CCCCCCCCC=O [Nonanal] | Conflicting info. |  |  | 
CCCCCS [Pentane-1-thiol] |  | Agonist |  | 

Compound | Class (agonist / non-agonist / conflicting info.) for OR1A1 (OR1A1; [1]) | Class (agonist / non-agonist / antagonist / conflicting info.) for OR2W1 (OR2W1; [2]) | Class (agonist / non-agonist / conflicting info.) for OR1A1 (OR1A1) | Class (agonist / non-agonist / antagonist / conflicting info.) for OR2W1 (OR2W1)
CCCCCCCC(=O)OCCc1ccccc1 [Phenethyl octanoate] | Non-agonist |  |  | 
Oc1ccccc1 [Phenol] |  |  | Non-agonist | 
CCC(=O)c1ccccc1 [Propiophenone] |  |  | Agonist | 
c1cnccn1 [Pyrazine] | Conflicting info. |  |  | 
C1CCNC1 [Pyrrolidine] | Non-agonist |  |  | 
CC(=O)CCc1ccc(O)cc1 [Raspberry ketone] |  |  | Non-agonist | 
O=C(O)CCC(=O)O [Succinic acid] | Non-agonist |  |  | 
Cc1ccc(C(C)C)c(O)c1 [Thymol] |  |  | Conflicting info. | 
CC(=O)c1cc2c(cc1C)C(C)(C)C(C)CC2(C)C (stereo not drawn) [Tonalide] |  |  | Non-agonist | 
O=C(O)/C=C(\CC(=O)O)C(=O)O [Trans-Aconitic acid] |  |  | Non-agonist | 
C=CC(=C)CC/C=C(\C)CCC=C(C)C [Trans-beta-farnesene] | Non-agonist |  |  | 
CN(C)C [Trimethylamine] |  |  | Non-agonist | 
CCCCCCCCCCC=O [Undecanal] | Non-agonist |  |  | 
CC/C=C\CCCCCC=O [Z-7-decanal] | Agonist |  |  | 
(+)-Menthone |  |  | Agonist | 
(S)-(-)-citronellal |  |  | Agonist | 
Ambrettolide | Non-agonist |  |  | 
Farnesene | Non-agonist |  |  | 
